Assay results as given in patent US8759342B2, “Benzo[1,4]oxazin-3-one, benzo[1,4]thiazin-3-one and quinolin-2-one urotensin II receptor antagonists” (Janssen Pharmaceutica NV, priority 2006, dated 2014).
Like-named read-outs stand apart in the source and are kept apart here.

What was measured:
[1] = molecular target: T1, rat GPR14 (U-II receptor) (Rattus norvegicus, UniProt P49684); conditions: agonist; calcium mobilization; read-out: FLIPR EC50; cited from earlier work
T1 construct: expressed in transfected cells
T1 sequence (P49684 1-386): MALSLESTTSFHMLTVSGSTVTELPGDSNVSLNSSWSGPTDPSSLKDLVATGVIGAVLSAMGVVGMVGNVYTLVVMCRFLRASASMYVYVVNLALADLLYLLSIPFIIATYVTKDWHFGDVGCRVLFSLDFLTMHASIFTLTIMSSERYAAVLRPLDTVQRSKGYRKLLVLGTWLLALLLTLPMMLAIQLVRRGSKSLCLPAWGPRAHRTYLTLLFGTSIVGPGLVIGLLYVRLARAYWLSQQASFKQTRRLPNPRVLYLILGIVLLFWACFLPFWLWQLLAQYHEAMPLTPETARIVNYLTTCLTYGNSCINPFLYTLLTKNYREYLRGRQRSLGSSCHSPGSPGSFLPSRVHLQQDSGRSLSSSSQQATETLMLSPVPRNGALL

[2] = molecular target: T2, (Rattus norvegicus, UniProt P49684); conditions: read-out: rU-II Ki; cited from earlier work
T2 sequence (P49684 1-386): T1 sequence (P49684 1-386)

isolated arterial rings [3] = conditions: rats; read-out: EC50, contraction of isolated arterial rings; cited from earlier work
isolated arterial rings [4] = conditions: humans; read-out: EC50, contraction of isolated arterial rings; cited from earlier work
Human UII receptors = molecular target: T3, Human UII receptors (Homo sapiens, UniProt Q9UKP6); test: Human radioligand binding assay, (125I)-U-II on HSMM; conditions: 0.150 nM (125I)-U-II, intact Human Skeletal Muscle Myoblasts, 3 hrs, 25° C.; read-out: Ki
T3 construct: host or cells: Human Skeletal Muscle Myoblasts (HSMM), intact adherent cells
T3 sequence (Q9UKP6 1-389): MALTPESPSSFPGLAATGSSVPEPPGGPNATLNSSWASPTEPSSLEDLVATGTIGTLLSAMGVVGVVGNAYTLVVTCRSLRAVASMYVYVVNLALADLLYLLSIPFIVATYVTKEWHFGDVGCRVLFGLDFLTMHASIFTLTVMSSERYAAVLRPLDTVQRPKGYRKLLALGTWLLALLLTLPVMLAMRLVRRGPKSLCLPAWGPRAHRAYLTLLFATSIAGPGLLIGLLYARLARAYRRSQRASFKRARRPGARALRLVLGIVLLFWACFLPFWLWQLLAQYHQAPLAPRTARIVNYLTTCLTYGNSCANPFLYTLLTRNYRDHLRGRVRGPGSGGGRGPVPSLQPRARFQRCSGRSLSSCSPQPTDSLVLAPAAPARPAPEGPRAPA
Procedure: Human Skeletal Muscle Myoblasts (HSMM) were obtained from Cambrex, and were cultured according to manufacturer's instruction. Cell viability was examined by trypan blue exclusion. Cells at less than 4 passages were used in all studies. […] The binding medium used was Dulbecco's modified Eagle's medium (DMEM) containing 2 mg/ml BSA and 25 mM HEPES (pH 7.4). […] The cells were washed 4× with the binding medium and solubilized in 1% SDS and 0.5 N NaOH. Radioactivity was quantified by gamma counting.

[5] = molecular target: T1, rat GPR14 (U-II receptor); test: Calcium flux assay (FLIPR); assay type: cell-based; conditions: Inhibition of acetyl-cyclic[Cys-Phe-Trp-Lys-(2-Nal)-Cys]-NH2 (1 nM) induced Ca2+ mobilization (FLIPR) in CHO cells transfected with rat UII receptor; 5 min incubation
How it was run: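 Stable CHO cell line expressing cloned rat U-II receptor, seeded 24 h before assay, loaded with FLIPR calcium dye in HBSS/20 mM HEPES/0.1% BSA/2.5 mM probenecid, pH 7.4, for 1 hr at 37° C. Calcium mobilization read at room temperature (23° C.).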

[6] = tested on: streptozotocin-induced diabetic rats; conditions: long-term treatment; cited from earlier work

## acetyl-cyclic[Cys-Phe-Trp-Lys-(2-Nal)-Cys]-NH2 [(Ac)-CFWK(2-NaI)C—NH2, agonist cyclic peptide used to induce Ca2+ mobilization in the FLIPR assay]
[1]
  EC50: 0.54 ± 0.2 nM
[2]
  Ki: 0.12 ± 0.05 nM

## AGTAD-cyclo(CFWKYC)-V [Goby U-II, Urotensin-II isolated from the urophysis of the goby fish as a 12-mer]
Isolated arterial rings [3]
  EC50: < 1 nM
Isolated arterial rings [4]
  EC50: < 1 nM

## CN(C)C(=O)C1(c2ccc(Cl)cc2)CCN(CCN2C(=O)CCc3ccccc32)CC1
other
  melting point: 243 to 245 °C

## O=C(NCCc1ccc2ccccc2c1)c1cc(Cl)ccc1C1CCN(CCN2C(=O)COc3ccccc32)CC1 [Cpd 61, 5-chloro-N-(2-naphthalen-2-yl-ethyl)-2-{1-[2-(3-oxo-2,3-dihydro-benzo[1,4]oxazin-4-yl)-ethyl]-piperidin-4-yl}-benzamide]
Human UII receptors
  Ki: 260 nM
[5]
  IC50: 2000 nM

## Cc1cc(NC(=O)NCCN2CCC(O)(Cc3ccccc3)CC2)c2ccccc2n1 [palosuran]
[6]
  development of proteinuria and renal damage: delayed the development of proteinuria and renal damage
  glycemia, glycosylated hemoglobin, and serum lipids: slowed the increase in glycemia, glycosylated hemoglobin, and serum lipids
  insulin: increased insulin
  renal blood flow: increased renal blood flow
  survival: improved survival

## CC(C)(C)OC(=O)N1CCN(CCNC(=O)c2cc(Cl)ccc2C2=CC3CCC(C2)N3CCN2C(=O)COc3ccccc32)CC1 (centres unmarked) [Cpd 94, 4-[2-(5-chloro-2-{8-[2-(3-oxo-2,3-dihydro-benzo[1,4]oxazin-4-yl)-ethyl]-8-aza-bicyclo[3.2.1]oct-2-en-3-yl}-benzoylamino)-ethyl]-piperazine-1-carboxylic acid tert-butyl ester]
Human UII receptors
  Ki: 1900 nM
[5]
  IC50: 290 nM
